Where two headings read alike, the source gives them in different places.
How the values were obtained:
human CD38 = biological target: T1, human CD38 (Homo sapiens, UniProt P28907); test: human recombinant CD38 enzyme assay (hydrolysis of NAD+); assay type: biochemical; details: human recombinant CD38, 0.4 nM enzyme, 62.5 μM NAD+; read-out: hCD38 BioChem IC50
T1 sequence (P28907 1-300): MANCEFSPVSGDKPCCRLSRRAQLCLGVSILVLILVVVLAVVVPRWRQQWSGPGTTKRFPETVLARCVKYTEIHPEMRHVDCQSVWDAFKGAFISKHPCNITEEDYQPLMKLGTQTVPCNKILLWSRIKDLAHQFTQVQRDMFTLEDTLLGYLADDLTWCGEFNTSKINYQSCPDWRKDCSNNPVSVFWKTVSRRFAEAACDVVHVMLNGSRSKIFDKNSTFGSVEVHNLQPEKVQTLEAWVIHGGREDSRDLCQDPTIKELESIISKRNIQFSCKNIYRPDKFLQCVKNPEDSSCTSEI
In short: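 Residual NAD+ after 60 min of cell-free hydrolysis by recombinant mouse or human CD38 at ambient temperature, measured over a dose range. Detection used ADH conversion to NADH, then diaphorase-coupled resazurin-to-resorufin fluorescence (Ex/Em 540/590 nm).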

CYP1A2 = biological target: T2, CYP1A2 (Homo sapiens, UniProt P05177); test: direct inhibition of CYP450 in human liver microsomes; assay type: in vitro ADME
T2 construct: from tissue; host or cells: human liver microsomes (pooled in the time-dependent assay)
T2 sequence (P05177 1-516): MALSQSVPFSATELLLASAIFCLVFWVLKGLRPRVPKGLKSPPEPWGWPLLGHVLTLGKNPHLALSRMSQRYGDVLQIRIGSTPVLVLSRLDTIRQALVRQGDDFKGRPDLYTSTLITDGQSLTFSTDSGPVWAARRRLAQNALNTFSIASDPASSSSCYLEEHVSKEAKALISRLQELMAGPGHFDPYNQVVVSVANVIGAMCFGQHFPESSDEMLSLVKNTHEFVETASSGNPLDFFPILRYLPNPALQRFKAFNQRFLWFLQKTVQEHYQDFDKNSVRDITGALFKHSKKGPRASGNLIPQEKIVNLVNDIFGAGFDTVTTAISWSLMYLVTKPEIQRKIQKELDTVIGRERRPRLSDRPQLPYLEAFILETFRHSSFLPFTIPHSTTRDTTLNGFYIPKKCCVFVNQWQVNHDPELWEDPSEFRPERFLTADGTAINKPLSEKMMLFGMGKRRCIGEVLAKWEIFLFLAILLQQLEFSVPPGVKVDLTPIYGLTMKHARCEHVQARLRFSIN
Procedure: (§1) Direct inhibition: […] A Perspective of the Pharmaceutical Research and Manufacturers of America”, Drug Metabolism and Disposition, 37 (7): 1355, 2009). For 3A4, the % activity was measured using both midazolam and testosterone as probes. Each compound at 3, 10, and 50 μM was incubated with HLM, NADPH and CYP isoenzyme specific probe substrates at 37° C. Inhibition of the probe substrate metabolism was quantified using LC/MS/MS. […] Known chemical inhibitors specific for the individual CYP isoenzymes were evaluated in parallel as positive controls and these compounds produced CYP inhibition consistent with published results (Walsky & Obach RS. “Validated assays for human cytochrome P450 activities”. Drug Metab Dispos. 32(6):647-60, 2004). Note that, in Tables 6 and 7, the “Compound No” corresponds to the compound numbers in Table 1.

CYP2C19 = biological target: T3, CYP2C19 (Homo sapiens, UniProt P33261); test: as above; assay type: in vitro ADME; details: for activity at 3 µM / activity at 10 µM / activity at 50 µM: % of non-inhibited control, read-out: CYP2C19 T0 % activity; for IC50: estimated from 3, 10, 50 uM, read-out: CYP2C19 T0 estimated IC50
T3 construct: from tissue; host or cells: human liver microsomes (pooled in the time-dependent assay)
Procedure: as §1

CYP2C9 = biological target: T4, CYP2C9 (Homo sapiens, UniProt P11712); test: as above; assay type: in vitro ADME; details: for activity at 3 µM / activity at 10 µM / activity at 50 µM: % of non-inhibited control, read-out: CYP2C9 T0 % activity; for IC50: estimated from 3, 10, 50 uM, read-out: CYP2C9 T0 estimated IC50
T4 construct: from tissue; host or cells: human liver microsomes (pooled in the time-dependent assay)
Procedure: as §1

CYP2B6 = biological target: T5, CYP2B6 (Homo sapiens, UniProt P20813); test: as above; assay type: in vitro ADME; details: for activity at 3 µM / activity at 10 µM / activity at 50 µM: % of non-inhibited control, read-out: CYP2B6 T0 % activity; for IC50: estimated from 3, 10, 50 uM, read-out: CYP2B6 T0 estimated IC50
T5 construct: from tissue; host or cells: human liver microsomes (pooled in the time-dependent assay)
T5 sequence (P20813 1-491): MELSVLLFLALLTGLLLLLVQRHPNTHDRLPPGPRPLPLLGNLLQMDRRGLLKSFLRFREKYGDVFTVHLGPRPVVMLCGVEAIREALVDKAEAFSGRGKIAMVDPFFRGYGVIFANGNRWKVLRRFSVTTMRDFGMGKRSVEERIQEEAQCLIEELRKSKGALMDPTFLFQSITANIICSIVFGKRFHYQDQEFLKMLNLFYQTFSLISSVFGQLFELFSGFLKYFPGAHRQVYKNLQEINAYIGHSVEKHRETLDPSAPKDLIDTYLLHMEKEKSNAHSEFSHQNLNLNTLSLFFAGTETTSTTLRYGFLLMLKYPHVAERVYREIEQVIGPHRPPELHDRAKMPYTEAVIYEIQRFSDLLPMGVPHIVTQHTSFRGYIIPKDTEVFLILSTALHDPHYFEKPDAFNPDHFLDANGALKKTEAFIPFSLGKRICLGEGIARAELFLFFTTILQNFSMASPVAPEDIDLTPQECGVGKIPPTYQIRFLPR
Procedure: as §1

[1] = 3 uM, human liver microsomes, % of non-inhibited control, read-out: CYP1A2 T0 % activity
[2] = 10 uM, human liver microsomes, % of non-inhibited control, read-out: CYP1A2 T0 % activity
[3] = 50 uM, human liver microsomes, % of non-inhibited control, read-out: CYP1A2 T0 % activity
[4] = human liver microsomes, estimated from 3, 10, 50 uM, read-out: CYP1A2 T0 estimated IC50

T3 sequence (P33261 whole entry): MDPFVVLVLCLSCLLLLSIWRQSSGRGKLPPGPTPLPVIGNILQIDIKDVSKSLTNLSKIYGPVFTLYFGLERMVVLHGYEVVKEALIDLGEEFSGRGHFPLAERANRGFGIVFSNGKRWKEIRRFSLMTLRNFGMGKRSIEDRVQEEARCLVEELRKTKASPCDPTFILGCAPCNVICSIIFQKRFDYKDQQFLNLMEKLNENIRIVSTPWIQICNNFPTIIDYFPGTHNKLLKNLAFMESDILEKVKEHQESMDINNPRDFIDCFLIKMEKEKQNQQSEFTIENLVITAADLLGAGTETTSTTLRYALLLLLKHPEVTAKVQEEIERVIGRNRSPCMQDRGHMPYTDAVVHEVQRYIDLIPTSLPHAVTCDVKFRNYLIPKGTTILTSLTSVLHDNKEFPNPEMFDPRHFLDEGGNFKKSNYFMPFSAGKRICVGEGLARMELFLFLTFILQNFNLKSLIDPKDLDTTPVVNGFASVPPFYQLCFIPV
T4 sequence (P11712 whole entry): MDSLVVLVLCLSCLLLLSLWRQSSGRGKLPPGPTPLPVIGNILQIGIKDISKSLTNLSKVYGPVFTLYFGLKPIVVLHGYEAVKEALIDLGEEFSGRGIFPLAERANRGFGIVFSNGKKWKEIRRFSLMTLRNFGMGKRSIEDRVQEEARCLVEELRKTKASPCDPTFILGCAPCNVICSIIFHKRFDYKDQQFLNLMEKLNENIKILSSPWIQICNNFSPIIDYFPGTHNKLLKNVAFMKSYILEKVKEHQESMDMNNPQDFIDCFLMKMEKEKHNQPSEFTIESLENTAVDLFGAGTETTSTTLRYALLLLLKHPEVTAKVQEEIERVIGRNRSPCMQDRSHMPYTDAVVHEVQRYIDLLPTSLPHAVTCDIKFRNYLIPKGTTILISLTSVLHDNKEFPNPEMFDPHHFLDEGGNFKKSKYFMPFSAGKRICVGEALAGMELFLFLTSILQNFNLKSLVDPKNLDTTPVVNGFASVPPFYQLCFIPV

SMILES	IC50 (human CD38) [µM]	activity at 3 µM (CYP1A2; [1]) [%]	activity at 10 µM (CYP1A2; [2]) [%]	activity at 50 µM (CYP1A2; [3]) [%]	IC50 (CYP1A2; [4]) [µM]	activity at 3 µM (CYP2C19) [%]	activity at 10 µM (CYP2C19) [%]	activity at 50 µM (CYP2C19) [%]	IC50 (CYP2C19) [µM]	activity at 3 µM (CYP2C9) [%]	activity at 10 µM (CYP2C9) [%]	activity at 50 µM (CYP2C9) [%]	IC50 (CYP2C9) [µM]	activity at 3 µM (CYP2B6) [%]	activity at 10 µM (CYP2B6) [%]	activity at 50 µM (CYP2B6) [%]	IC50 (CYP2B6) [µM]	also measured
CO[C@H]1CC[C@H](NC(=O)c2cc(C3(C)COC3)nc(-c3cncn3C)n2)CC1 [Compound 295, N-((1r,4r)-4-methoxycyclohexyl)-2-(1-methyl-1H-imidazol-5-yl)-6-(3-methyloxetan-3-yl)pyrimidine-4-carboxamide]	0.0185	101	98	97	> 50	108	100	79	> 50	91	85	63	> 50	96	91	79	> 50	
CO[C@H]1CC[C@H](NC(=O)c2cc(C3CCC(F)(F)CC3)nc(-c3cncn3C)n2)CC1 [Compound 289, 6-(4,4-difluorocyclohexyl)-N-((1r,4r)-4-methoxycyclohexyl)-2-(1-methyl-1H-imidazol-5-yl)pyrimidine-4-carboxamide]	0.007	100	95	81	> 50	83	63	23	< 50	96	81	49	< 50	98	95	79	> 50	
CC(C)(O)c1ccc(NC(=O)c2nccc(-n3ccnc3)n2)cn1 [Compound 249, N-(6-(2-hydroxypropan-2-yl)pyridin-3-yl)-4-(1H-imidazol-1-yl)pyrimidine-2-carboxamide]	0.0119					95	96	74	> 50	106	103	92	> 50	98	98	92	> 50	IC50 (CYP1A2): > 50 µM; activity at 3 µM (CYP1A2; human, microsomes): 99%; activity at 10 µM (CYP1A2; human, microsomes): 93%; activity at 50 µM (CYP1A2; human, microsomes): 81%

Continued by falling IC50 (human CD38), values first:

IC50 (human CD38) [µM]	activity at 3 µM (CYP1A2; [1]) [%]	activity at 10 µM (CYP1A2; [2]) [%]	activity at 50 µM (CYP1A2; [3]) [%]	IC50 (CYP1A2; [4]) [µM]	activity at 3 µM (CYP2C19) [%]	activity at 10 µM (CYP2C19) [%]	activity at 50 µM (CYP2C19) [%]	IC50 (CYP2C19) [µM]	activity at 3 µM (CYP2C9) [%]	activity at 10 µM (CYP2C9) [%]	activity at 50 µM (CYP2C9) [%]	IC50 (CYP2C9) [µM]	activity at 3 µM (CYP2B6) [%]	activity at 10 µM (CYP2B6) [%]	activity at 50 µM (CYP2B6) [%]	IC50 (CYP2B6) [µM]	SMILES	also measured
0.07																	CO[C@H]1CC[C@H](NC(=O)c2nccc(-c3cncn3C)n2)CC1 [Compound 148, N-((1r,4r)-4-methoxycyclohexyl)-4-(1-methyl-1H-imidazol-5-yl)pyrimidine-2-carboxamide]	
0.0684	94	92	78	> 50	97	96	88	> 50	90	94	86	> 50	103	101	91	> 50	Cn1cncc1-c1ccnc(C(=O)N[C@H]2CC[C@H](O)CC2)n1 [Compound 256, N-((1r,4r)-4-hydroxycyclohexyl)-4-(1-methyl-1H-imidazol-5-yl)pyrimidine-2-carboxamide]	
0.0152	96	96	85	> 50	92	85	39	< 50	101	96	69	> 50	95	80	53	> 50	CO[C@H]1CC[C@H](NC(=O)c2cc(C3CCOCC3)nc(-c3cncn3C)n2)CC1 [Compound 199, N-((1r,4r)-4-methoxycyclohexyl)-2-(1-methyl-1H-imidazol-5-yl)-6-(tetrahydro-2H-pyran-4-yl)pyrimidine-4-carboxamide]	
0.0141					88	88	66	> 50	99	94	89	> 50	101	99	89	> 50	Cn1cncc1-c1ccnc(C(=O)Nc2ccc(C(C)(C)O)nc2)n1 [Compound 250, N-(6-(2-hydroxypropan-2-yl)pyridin-3-yl)-4-(1-methyl-1H-imidazol-5-yl)pyrimidine-2-carboxamide]	IC50 (CYP1A2): < 50 µM; activity at 3 µM (CYP1A2; human, microsomes): 88%; activity at 10 µM (CYP1A2; human, microsomes): 69%; activity at 50 µM (CYP1A2; human, microsomes): 34%

From patent US20230116972A1, “CD38 MODULATORS AND METHODS OF USE THEREOF” (Cytokinetics, Inc., priority 2021, published 2023)
